Results on twelve compounds are retold here after ChEMBL document CHEMBL1201862, “PubChem BioAssay data set” (2004).

The structures appear in SMILES notation.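 1) Cells in 96-well plates. 2) Compound, 48 h, 5 concentrations. 3) Linear interpolation between surrounding doses. 4) Unreached endpoint = highest concentration. The concentration for 50% growth inhibition is given as GI50.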 The source made the active and inactive calls. Rule as the data show it: active = GI50 up to about 1.1 µM and inactive = higher. Bounds are passed on as bounds.

Holding throughout (assay): inhibition of tumour cell growth, NCI panel, 48 h
Experiment [1] has as its system A498.
Experiment [2] concerns A549.
In experiment [3] the test system is COLO 205.
Experiment [4] concerns HCC 2998.
In experiment [5] the test system is HOP-62.
For experiment [6], the system named is MDA-MB-231.
The test system of experiment [7] is MOLT-4.
Experiment [8] deals with NCI-H23.
For experiment [9], the system named is NCI-H460.
Experiment [10] concerns NCI/ADR-RES.
For experiment [11], the system named is RPMI-8226.
Experiment [12] relates to RXF 393.
The subject of experiment [13] is SK-MEL-5.
For experiment [14], the system named is SK-OV-3.
The subject of experiment [15] is SN12C.
The subject of experiment [16] is SNB-75.
Experiment [17] has as its system SW-620.
The test system of experiment [18] is UACC-62.
Experiment [19] deals with SK-MEL-28.
Experiment [20] deals with T47D.

With `Cc1ccc(C(CC(=O)C(C)(C)CN2CCCCC2)SCCS(=O)(=O)O)cc1` (stereo not drawn), the GI50 was 19.7 µM (inactive) in [1]; 36.1 µM (inactive) in experiment [2]; 18.8 µM (inactive) in experiment [3]; 39.4 µM (inactive) in [4]; 36.6 µM (inactive) in [5]; 34.7 µM (inactive) in experiment [6]. In addition, the GI50 in experiment [7] is 20.8 µM (inactive); in experiment [8], 27.9 µM (inactive); in [9], 42.3 µM (inactive); in experiment [10] it was 28.8 µM (inactive); in [11] it was 22.1 µM (inactive); in [12] it was 11.8 µM (inactive). Further, the GI50 in experiment [13] is 23.2 µM (inactive); in [14], 49.3 µM (inactive); in experiment [15], 25.3 µM (inactive); in experiment [16] it was 31.3 µM (inactive); in [17], 25.8 µM (inactive); in experiment [18] it was 21.7 µM (inactive).
Consider `COc1ccccc1/C=C1\NC(=S)N(/C=C2\C(=O)Oc3ccccc3C2=O)C1=O`, for which the GI50 in experiment [2] was 51.6 µM (inactive); in experiment [3] it was 45.3 µM (inactive); in experiment [4], 53.7 µM (inactive); in experiment [5], > 100 µM (inactive); in [6] it was 40.7 µM (inactive); in experiment [7], 11 µM (inactive). Also, the GI50 in [8] is 35.9 µM (inactive); in experiment [9] it was 41.4 µM (inactive); in experiment [10], 24.6 µM (inactive); in experiment [12], 38.5 µM (inactive); in experiment [19], 51.5 µM (inactive); in experiment [13] it was 23.9 µM (inactive). For the same compound, the GI50 was 80.4 µM (inactive) in experiment [14]; > 100 µM (inactive) in [15]; 30.1 µM (inactive) in experiment [16]; 53.2 µM (inactive) in experiment [17]; 23.3 µM (inactive) in experiment [18].
On to `COc1ccc(C2c3c[nH]nc3CC3CCCCC32)cc1` (stereo not drawn), for which the GI50 in [1] is 11 µM (inactive); in [2], 14.5 µM (inactive); in [4], 20.3 µM (inactive); in experiment [5], 21.3 µM (inactive); in experiment [6], 14 µM (inactive); in [7], 17.7 µM (inactive). Moreover, the GI50 is 17.4 µM (inactive) in experiment [8]; 16.5 µM (inactive) in experiment [9]; 19.8 µM (inactive) in [11]; 18.3 µM (inactive) in experiment [19]; 15.7 µM (inactive) in [13]; 16.9 µM (inactive) in experiment [15]. Also, the GI50 in experiment [16] is 13.1 µM (inactive); in experiment [17] it was 18.3 µM (inactive); in experiment [20] it was 3.99 µM (inactive); in [18], 11.9 µM (inactive).
For the compound `CN(C)c1nncc2[nH]nnc12`, the GI50 in experiment [1], in experiment [2], in experiment [3], in experiment [4], in experiment [5] and in experiment [7] was > 100 µM (inactive) each time. The GI50 in experiment [8], in experiment [10], in [11], in experiment [19], in experiment [13] and in experiment [14] was > 100 µM (inactive) throughout. Also, the GI50 in experiment [15], in experiment [16], in [17], in experiment [20] and in [18] was > 100 µM (inactive) throughout.
Regarding `Cc1cc(C)c(S(=O)(=O)N2CCN(S(=O)(=O)c3c(C)cc(C)cc3C)OCCCCCO2)c(C)c1`, the GI50 in experiment [1], in [2], in experiment [3], in experiment [5], in experiment [7] and in experiment [8] was > 100 µM (inactive) throughout. Besides, the GI50 in experiment [9], in [10], in experiment [19], in [13], in experiment [14] and in experiment [15] was > 100 µM (inactive) in each case. The GI50 in experiment [17] and in [18] was > 100 µM (inactive) in each case.
`COC(=O)c1c(O)c(C#N)c2[nH]c3ccccc3n2c1=O`: the GI50 in experiment [1], in [2], in experiment [3], in experiment [4], in experiment [5] and in experiment [6] was > 100 µM (inactive) throughout. Also, the GI50 in [7], in experiment [8], in experiment [9], in experiment [10], in [11] and in experiment [12] was > 100 µM (inactive) throughout. The GI50 in experiment [13], in [14], in experiment [15], in experiment [16], in experiment [17] and in experiment [18] was > 100 µM (inactive) throughout.
Take `COc1cc(NC(C)=O)ccc1C(=O)NN1C(=O)/C(=C/c2ccco2)N=C1c1ccccc1`: the GI50 in [1] was 15.4 µM (inactive); in experiment [2] it was > 50 µM (inactive); in experiment [3] it was > 50 µM (inactive); in experiment [5], 21.4 µM (inactive); in experiment [7], 14.5 µM (inactive); in experiment [8], > 50 µM (inactive). Besides, the GI50 is > 50 µM (inactive) in experiment [10]; 13.5 µM (inactive) in experiment [11]; > 50 µM (inactive) in [12]; 28.6 µM (inactive) in experiment [19]; 16 µM (inactive) in experiment [13]; > 50 µM (inactive) in experiment [14]. Moreover, the GI50 in experiment [15] is > 50 µM (inactive); in [16], > 50 µM (inactive); in experiment [17] it was 27.7 µM (inactive); in experiment [20] it was > 50 µM (inactive); in [18], 25.4 µM (inactive).
Regarding `NS(=O)(=O)c1ccc(NC(=O)Cc2nc3ccccc3s2)cc1`, the GI50 in experiment [1] is 21.1 µM (inactive); in [2], 20.6 µM (inactive); in [3] it was 19.5 µM (inactive); in experiment [4], 19.5 µM (inactive); in experiment [5], 22.3 µM (inactive); in experiment [7], 20.1 µM (inactive). Moreover, the GI50 is 15.9 µM (inactive) in [8]; 17.5 µM (inactive) in [9]; 21.3 µM (inactive) in experiment [11]; 18.6 µM (inactive) in experiment [12]; 17.7 µM (inactive) in [19]; 20.2 µM (inactive) in experiment [13]. Moreover, the GI50 in experiment [14] is 25.7 µM (inactive); in [15], 17.2 µM (inactive); in experiment [16], 16.4 µM (inactive); in experiment [17], 17.1 µM (inactive); in [18] it was 15.7 µM (inactive).
Consider `COC(=O)c1c2c(cc3c1CC1(Cc4cc5c(cc4C1=O)CCC5)C3)CCC2` (stereo not drawn), for which the GI50 in experiment [1] is 34.4 µM (inactive); in [2] it was 56.6 µM (inactive); in experiment [3], 79.3 µM (inactive); in experiment [4], 63 µM (inactive); in experiment [5], 34.3 µM (inactive); in experiment [6], > 100 µM (inactive). The GI50 is 5.47 µM (inactive) in experiment [7]; 40.7 µM (inactive) in experiment [8]; 86.1 µM (inactive) in experiment [9]; 6.79 µM (inactive) in experiment [11]; 63 µM (inactive) in experiment [19]; 10.5 µM (inactive) in [13]. Besides, the GI50 in [14] was 21.9 µM (inactive); in experiment [15], > 100 µM (inactive); in experiment [16], 14.3 µM (inactive); in experiment [17], 20.8 µM (inactive); in [20], 59 µM (inactive); in experiment [18], 39.1 µM (inactive).
In the case of `NC1C/C(=N\O)c2c(Cl)sc(Cl)c21` (stereo not drawn), the GI50 is 20.2 µM (inactive) in [1]; 29.3 µM (inactive) in [2]; 25.4 µM (inactive) in experiment [3]; 92.7 µM (inactive) in experiment [4]; 21.5 µM (inactive) in experiment [5]; 9.73 µM (inactive) in experiment [7]. In addition, the GI50 was 17.1 µM (inactive) in experiment [8]; 20.4 µM (inactive) in experiment [9]; 25.6 µM (inactive) in [10]; 10.2 µM (inactive) in [11]; 19.3 µM (inactive) in [19]; > 100 µM (inactive) in [14]. For the same compound, the GI50 in experiment [15] was 19.1 µM (inactive); in [16], 25.2 µM (inactive); in experiment [17], 17.9 µM (inactive); in [20], 18.7 µM (inactive).
On to `Nn1c(Nc2ccc(S(N)(=O)=O)cc2)nnc(/C=C/c2c(O)ccc3ccccc23)c1=O`, for which the GI50 in [1] was 26.7 µM (inactive); in experiment [2], 28.1 µM (inactive); in experiment [3], 27.1 µM (inactive); in experiment [4], 18.8 µM (inactive); in experiment [5], 20.3 µM (inactive); in experiment [7], 0.234 µM (active). Also, the GI50 in [8] was 4.07 µM (inactive); in experiment [9] it was 26.7 µM (inactive); in experiment [10] it was 16.3 µM (inactive); in experiment [11] it was 10.7 µM (inactive); in [19] it was 19.3 µM (inactive); in experiment [13] it was 14.5 µM (inactive). For the same compound, the GI50 is 24.2 µM (inactive) in experiment [14]; 11.6 µM (inactive) in experiment [15]; 16.4 µM (inactive) in experiment [17]; 15 µM (inactive) in [20]; 18.7 µM (inactive) in [18].
Take `N/C(=N\c1ccc(Cl)cc1)c1ccccc1N`: the GI50 in experiment [1], in [2], in experiment [3], in experiment [4], in [5] and in experiment [6] was > 100 µM (inactive) throughout. The GI50 in [7], in experiment [8], in [9], in experiment [10], in [11] and in [12] was > 100 µM (inactive) each time. The GI50 in experiment [19], in experiment [13], in experiment [14], in experiment [16], in [17] and in experiment [18] was > 100 µM (inactive) each time.
